Data from patent publication US11160790B2, “Method of inhibiting Cryptococcus growth using eltrombopag” (priority 2019, dated 2021).
Values after ≈ are worked out from the molar mass of the structure shown.

Tests used:
[1] = tested on: Aspergillus fumigatus AF293; assay: Microdilution assay (CLSI M27-A3/M38-A2), MIC and MFC; format: cell-based
Procedure: (§1) Cryptococcus and Candida species were cultured in yeast extract-peptone-dextrose (YPD) medium (containing 1% yeast extract, 2% peptone, 2% glucose, and optionally 2% agar for preparation of an agar plate). Aspergillus, Fusarium, and Trichophyton species were cultured on potato dextrose agar (PDA) plate (containing 2% potato infusion, […], and 1.5% agar). A microdilution assay was performed to determine minimum inhibitory concentration (MIC), minimum fungicidal concentration (MFC), and fractional inhibitory concentration (FIC) index (FICI) using RPMI 1640 medium buffered with MOPS. Minimal medium (containing 15 mM glucose, 10 mM magnesium sulfate, 29.4 mM potassium dihydrogen phosphate, 13 mM glycine, and 3 μM thiamine hydrochloride; pH 5.5) was used for capsule size assay and melanization assay.
(§2) To investigate the inhibitory effects of eltrombopag on the growth of fungi, microdilution assays (based on the CLSI standards M27-A3 and M38-A2) were performed with multiple pathogenic yeasts and filamentous fungi including Cryptococcus, Candida, Aspergillus, Fusarium, and Trichophyton (TABLE 1). Briefly, yeast or filamentous fungi strains at a final concentration of about 10^3 cfu/mL were inoculated in RPMI 1640 medium containing two-fold serially diluted eltrombopag (started at 64 mg/L). In addition, fungal cultures without eltrombopag were used as positive controls, while media without fungal cells and eltrombopag were used as negative controls. The 96-well plates loaded with the aforementioned cultures were incubated at 35° C. for 48 hours, and the growth of cells in each well was examined to determine the minimum inhibitory concentration (MIC) of eltrombopag, which was the lowest drug concentration at which there was no visible cell growth. Thereafter, 3 μL of the fungal culture from each well of the 96-well plates was spotted onto eltrombopag-free YPD (for yeasts) or PDA (for filamentous fungi) agar plates, which were then incubated at 35° C. for 48 hours to examine colony formation Minimum fungicidal concentration (MFC) was determined to be the lowest drug concentration at which no colonies formed. The assays were performed in triplicate.

[2] = tested on: Candida albicans SC5314; assay: as above; format: cell-based; settings: 35° C.
Procedure: as §1, §2

[3] = tested on: Candida glabrata CBS138; assay: as above; format: cell-based; settings: Nakaseomyces glabratus, 35° C.
Procedure: as §1, §2

[4] = tested on: Candida krusei ATCC6258; assay: as above; format: cell-based; settings: Pichia kudriavzevii, 35° C.
Procedure: as §1, §2

[5] = tested on: Candida lusitaniae ATCC42720; assay: as above; format: cell-based; settings: Clavispora lusitaniae, 35° C.
Procedure: as §1, §2

[6] = tested on: Candida parapsilosis ATCC22019; assay: as above; format: cell-based; settings: Lodderomyces parapsilosis, 35° C.
Procedure: as §1, §2

[7] = tested on: Candida tropicalis MYA3404; assay: as above; format: cell-based; settings: 35° C.
Procedure: as §1, §2

[8] = tested on: Cryptococcus deuterogattii R265; assay: as above; format: cell-based; settings: 35° C.
Procedure: as §1, §2

[9] = tested on: Cryptococcus deuterogattii R272; assay: as above; format: cell-based; settings: 35° C.
Procedure: as §1, §2

[10] = tested on: Cryptococcus gattii WM276; assay: as above; format: cell-based; settings: 35° C.
Procedure: as §1, §2

[11] = tested on: Cryptococcus neoformans 89-610; assay: as above; format: cell-based; settings: 35° C.
Procedure: as §1, §2

[12] = tested on: Cryptococcus neoformans H99; assay: as above; format: cell-based; settings: 35° C.
Procedure: as §1, §2

[13] = tested on: Cryptococcus neoformans T1; assay: as above; format: cell-based
Procedure: as §1, §2

[14] = tested on: Fusarium solani Fungus III-6; assay: as above; format: cell-based
Procedure: as §1, §2

[15] = tested on: Trichophyton rubrum MYA4438; assay: as above; format: cell-based
Procedure: as §1, §2

[16] = tested on: C. neoformans H99; assay: Checkerboard titration assay; format: cell-based, Cryptococcus neoformans; settings: 30° C., 48 hours
Procedure: (§3) Amphotericin B plus 5-flucytosine or fluconazole are combinations often used to treat cryptococcal meningitis. To investigate the synergy between eltrombopag and existing antifungal drugs or other drugs, a checkerboard titration assay was performed on Cryptococcus. Briefly, C. neoformans […] and C. deuterogattii […] cells were cultured overnight at 30° C. and then washed twice with double-distilled water. The cells were diluted to 10^3 cfu/mL with RPMI 1640 medium, and 100 μL of the cell suspension was added to each well of a 96-well polystyrene plate. […] After incubation at 30° C. for 48 hours, the growth of cells under different treatments was assessed by measuring the light absorbance at 600 nm (OD600). This assay allows the determination of fractional inhibitory concentration index (FICI): (MICcombined of drug A/MICalone of drug A)+(MICcombined of drug B/MICalone of drug B). After the checkerboard titration assay, the cells (3 μL) in the 96-well plate were transferred to drug-free YPD agar plates. After incubation at 30° C. for 48 hours, the agar plates were photographed and assessed for cell viability.

[17] = tested on: C. deuterogattii R265; assay: Checkerboard titration assay; format: cell-based, Cryptococcus deuterogattii; settings: 30° C., 48 hours
Procedure: as §3

With `CC1=NN(c2ccc(C)c(C)c2)C(=O)/C1=N\Nc1cccc(-c2cccc(C(=O)O)c2)c1O` [eltrombopag] the antifungal activity [1] was “no antifungal activity”, the MIC ([1]; Aspergillus fumigatus, AF293, 35° C., 48 hours) was over 64 µg/mL and the MFC ([1]; Aspergillus fumigatus, AF293, 35° C., 48 hours on drug-free agar) was over 64 µg/mL. The MIC ([2]; 48 hours) was over 64 µg/mL, the MFC ([2]; 48 hours on drug-free agar) was over 64 µg/mL and the MIC ([3]; CBS138, 48 h, 48 hours) was about 0.25 µg/mL (≈ 0.565 µM). The MFC ([3]; CBS138, 48 hours on drug-free agar) was over 64 µg/mL, the MIC ([4]; 48 hours) was 64 µg/mL (≈ 145 µM) and the MFC ([4]; 48 hours on drug-free agar) was over 64 µg/mL. For the same compound, the MIC ([5]; 48 hours) was 64 µg/mL (≈ 145 µM), the MFC ([5]; 48 hours on drug-free agar) was over 64 µg/mL and the MIC ([6]; 48 hours) was 64 µg/mL (≈ 145 µM). It also gave an MFC ([6]; 48 hours on drug-free agar) of over 64 µg/mL, an MIC ([7]; 48 hours) of 64 µg/mL (≈ 145 µM) and an MFC ([7]; 48 hours on drug-free agar) of over 64 µg/mL. It also gave an MIC ([8]; 48 hours) of 0.125 µg/mL (≈ 0.283 µM), an MFC ([8]; 48 hours on drug-free agar) of over 64 µg/mL and an MIC ([9]; 48 hours) of 0.125 µg/mL (≈ 0.283 µM). For the same compound, the MFC ([9]; 48 hours on drug-free agar) was over 64 µg/mL, the MIC ([10]; 48 hours) was 0.125 µg/mL (≈ 0.283 µM) and the MFC ([10]; 48 hours on drug-free agar) was over 64 µg/mL. For the same compound, the MIC ([11]; Cryptococcus neoformans, 89610, 48 h, 48 hours, azole-resistant strain) was 0.125 µg/mL (≈ 0.283 µM), the MFC ([11]; Cryptococcus neoformans, 89610, 48 hours on drug-free agar) was over 64 µg/mL and the MIC ([12]; 48 hours) was 0.125 µg/mL (≈ 0.283 µM). For the same compound, the MFC ([12]; 48 hours on drug-free agar) was over 64 µg/mL, the MFC ([13]; T1, 35° C., 48 hours on drug-free agar) was over 64 µg/mL and the MIC ([13]; T1, 48 h, 35° C., 48 hours, azole-resistant strain) was 0.125 µg/mL (≈ 0.283 µM). For the same compound, the antifungal activity [14] was “no antifungal activity”, the MIC ([14]; Fusarium solani, 35° C., 48 hours) was over 64 µg/mL and the MFC ([14]; Fusarium solani, 35° C., 48 hours on drug-free agar) was over 64 µg/mL. The MFC ([15]; MYA4438, 35° C., 48 hours on drug-free agar) was over 64 µg/mL, the MIC ([15]; MYA4438, 48 h, 35° C., 48 hours) was about 0.5 µg/mL (≈ 1.13 µM) and the MICalone [16] was 0.25 mg/L. The “MICcombined of ETP” value ([16]; ETP in combination with AMB) was 0.03 mg/L, the “MICcombined of ETP” value ([16]; ETP in combination with CsA) was 0.25 mg/L and the “MICcombined of ETP” value ([16]; ETP in combination with FK506) was 0.015 mg/L. The “MICcombined of ETP” value ([16]; ETP in combination with FLC) was 0.03 mg/L, the MICalone [17] was 0.5 mg/L and the “MICcombined of ETP” value ([17]; ETP in combination with AMB) was 0.03 mg/L. The “MICcombined of ETP” value ([17]; ETP in combination with CsA) was 1 mg/L, the “MICcombined of ETP” value ([17]; ETP in combination with FK506) was 0.015 mg/L and the “MICcombined of ETP” value ([17]; ETP in combination with FLC) was 0.03 mg/L.
